Results taken from patent US8404646B2, “Methods for preventing or treating mitochondrial permeability transition” (Cornell Research Foundation, Inc., priority 2003, dated 2013).
Non-standard residues stand in square brackets, D forms with d. Residues, ends and D or L forms follow the SMILES beside them. *: point of attachment. Dansyl = CN(C)c1cccc2c(S(=O)(=O)*)cccc12; Dmt = Cc1cc(O)cc(C)c1C[C@H](N)C(=O)O; Dap = NC[C@H](N)C(=O)O

What was measured:
Caco-2 cells = assay: Confocal laser scanning microscopy of fluorescent analogs (uptake, subcellular distribution); type: cell-based, human; settings: for subcellular distribution of fluorescence: Caco-2, CLSM
Protocol: The uptake of [Dmt^1]DALDA into Caco-2 cells was confirmed by confocal laser scanning microscopy (CLSM) using a fluorescent analog of [Dmt^1]DALDA (Dmt-D-Arg-Phe-dnsDap-NH2; where dnsDap=β-dansyl-1-α,β-diaminopropionic acid). Cells were grown as described above and were plated on (35 mm) glass bottom dishes (MatTek Corp., Ashland, Mass.) for 2 days. The medium was then removed and cells were incubated with 1 ml of HBSS containing 0.1 μM to 1.0 μM of the fluorescent peptide analog at 37° C. for 1 h. Cells were then washed three times with ice-cold HBSS and covered with 200 μl of PBS, and microscopy was performed within 10 min at room temperature using a Nikon confocal laser scanning microscope with a C-Apochromat 63×/1.2 W corr objective. Excitation was performed at 340 nm by means of a UV laser, and emission was measured at 520 nm. For optical sectioning in z-direction, 5-10 frames with 2.0 μm were made.
To examine the subcellular distribution of [Dmt^1]DALDA, the fluorescent analog, [Dmt^1, AtnDap^4]DALDA (Dmt-D-Arg-Phe-atnDap-NH2; where atn=β-anthraniloyl-1-α,β-diamino-propionic acid), was prepared. The analog contained β-anthraniloyl-1-α,β-diaminopropionic acid in place of the lysine reside at position 4. The cells were grown as described in Example 1 and were plated on (35 mm) glass bottom dishes (MatTek Corp., Ashland, Mass.) for 2 days. The medium was then removed and cells were incubated with 1 ml of HBSS containing 0.1 μM of [Dmt^1, AtnDap^4]DALDA at 37° C. for 15 min to 1 h.
Cells were also incubated with tetramethylrhodamine methyl ester (TMRM, 25 nM), a dye for staining mitochondria, for 15 min at 37° C. Cells were then washed three times with ice-cold HBSS and covered with 200 μl of PBS, and microscopy was performed within 10 min at room temperature using a Nikon confocal laser scanning microscope with a C-Apochromat 63×/1.2 W corr objective.
For [Dmt^1, AtnDap^4]DALDA, excitation was performed at 350 nm by means of a UV laser, and emission was measured at 520 nm. For TMRM, excitation was performed at 536 nm, and emission was measured at 560 nm.

[1] = Body weight and heart rate during the infarction/reperfusion experiment; type: in vivo, rat
Protocol: Adult male […] rats (F344 strain, National Institute of Aging, maintained by Harian Sprague-Dawley Inc.), weighting between 285 and 425 gm, were used. Twenty-four rats (n=8/group) were randomly assigned to one of three groups: (1) Control group was given 0.4 ml of saline as an intra-peritoneal (IP) injection 30 minutes before the ligation of left anterior descending coronary artery, followed by same IP dose injection 5 minutes before reperfusion; (2) SS-31 group was treated with SS-31 (3 mg/kg dissolved in 0.4 ml of saline) as an IP injection 30 minutes before the ligation followed by same IP dose injection as maintenance 5 minutes before reperfusion; and (3) SS-20 group was treated with SS-20 (3 mg/kg dissolved in 0.4 ml of saline) as an IP injection 30 minutes before the ligation followed by same dose IP injection as maintenance just 5 minutes before reperfusion. Also, Sham-operated rats (n=3) were used to account for possible effects related to the surgical protocol. All procedures were performed in a blinded manner, with the groups assigned letters and their identities unknown to the operators. Likewise, the two independent investigators analyzing the data were blind to the treatment assignments.
After anesthesia with ketamine (90 mg/kg IP) and xylazine (4 mg/kg IP), a tracheotomy was performed, and the rat was intubated with polyethylene tube and ventilated (Harvard Rodent Ventilator model 683) with room air and a tidal volume of 0.65 ml/100 gm of body weight at 90 breaths per minute. Body temperature was maintained at 37° C. by using a heated operating table. The internal jugular vein was surgically exposed and a polyethylene tube was inserted for Evans blue dye solution injection. Peripheral limb electrodes were inserted subcutaneously and electrocardiogram was monitored throughout the procedure.
An ECG was recorded continuously from a standard lead II (AC AMP 700) inserted into the limbs of all rats. The ECG was printed at 25 mm/second. The cardiac arrhythmias were monitored and assessed in accordance with the Lambeth Convention. The assessment was performed in a blinded manner using the original paper recordings. A validated score was used to quantify the severity of cardiac arrhythmias. The score consisted of six types: 0, no ventricular extrasystoles (VES), ventricular tachycardia (VT) or ventricular fibrillation (VF); 1=VES; 2=one to five episodes of VT (more than four coupled VES); 3=more than five episodes of VT and/or one VF; 4=two to five episodes of VF; 5=more than five episodes of VF.
All values are expressed as mean±standard error of mean (S.E.M.). Statistical analyses were performed using SPSS version 10. Differences among groups in body weight, heart rate, arrhythmia, area at risk as a percentage of the left ventricle, and area of infarction as a percentage of the area at risk were analyzed using ANOVA. If significant differences were detected, comparisons between the control group and the 2 treatment groups were conducted using the Mann-Whitney U-test. A two-tailed p<0.05 was regarded as significant.

[2] = test system: isolated mouse liver mitochondria; assay: Uptake into isolated mitochondria (fluorescence quenching, radioactivity in pellet); type: in vitro ADME
Protocol: (FIG. 1A) Mitochondrial uptake of SS-19 was determined using fluorescence spectrophotometry (ex/em=320/420 nm). […] Pretreatment of mitochondria with FCCP (1.5 μM) reduced quenching by <20% (black line). […] Uptake was stopped by centrifugation (16000×g) for 5 min at 4° C., and radioactivity determined in the pellet. […] Data are shown as mean±s.e.; n=3. *, P<0.05 by Student's t-test. […] Black line, TMRM; red line, SS-19.
To isolate mitochondria from mouse liver, mice were sacrificed by decapitation. The liver was removed and rapidly placed into chilled liver homogenization medium. The liver was finely minced using scissors and then homogenized by hand using a glass homogenizer.
The homogenate was centrifuged for 10 min at 1000×g at 4° C. The supernatant was aspirated and transferred to polycarbonate tubes and centrifuged again for 10 min. at 3000×g, 4° C. The resulting supernatant was removed, and the fatty lipids on the side-wall of the tube were carefully wiped off.
The pellet was resuspended in liver homogenate medium and the homogenization repeated twice. The final purified mitochondrial pellet was resuspended in medium. Protein concentration in the mitochondrial preparation was determined by the Bradford procedure.
Approximately 1.5 mg mitochondria in 400 μl buffer was incubated with [^3H][Dmt^1]DALDA for 5-30 min at 37° C. The mitochondria were then centrifuged down and the amount of radioactivity determined in the mitochondrial fraction and buffer fraction. […] Thus [Dmt^1]DALDA is concentrated in mitochondria.
Thus uptake of [Dmt^1, AtnDap^4]DALDA was not potential-dependent.
To confirm that the mitochondrial targeting was not an artifact of the fluorophore, we also examined mitochondrial uptake of [^3H][Dmt^1]DALDA. Isolated mitochondria were incubated with [^3H][Dmt^1]DALDA and radioactivity determined in the mitochondrial pellet and supernatant.
We next examined the effect of mitochondrial swelling on the accumulation of [Dmt^1, AtnDap^4]DALDA in mitochondria by using alamethicin to induce swelling and rupture of the outer membrane. […] Thus, [Dmt^1]DALDA is associated with mitochondrial membranes.

Row | Compound | uptake of fluorescent peptide into Caco-2 cells (CLSM) (Caco-2 cells; 0.1 μM, 1 h, 37° C.) | subcellular distribution of fluorescence (Caco-2 cells) | Heart Rate Baseline ([1]; Baseline) | Heart Rate Ischemia ([1]; first column) | Heart Rate Ischemia ([1]; second column) | Heart Rate Open chest ([1]; Open chest) | Heart Rate Reperfusion ([1]; first column) | Heart Rate Reperfusion ([1]; second column) | incubation time after which uptake into Caco-2 cells was shown (Caco-2 cells; 0.1 μM, 37° C.) | distribution to mitochondria (overlap with TMRM) (Caco-2 cells; Caco-2, TMRM 25 nM) | reduction of uptake (fluorescence quenching) by FCCP pretreatment ([2]; FCCP 1.5 μM, mitochondria 0.35 mg/ml) | effect of alamethicin-induced mitochondrial swelling on uptake [2] | effect of alamethicin-induced mitochondrial swelling on uptake ([2]; listed as [Dmt^1, AtnDap^4]DALDA) | uptake on addition of mitochondria (fluorescence) ([2]; ex/em 320/420 nm)
1 | Cc1cc(O)cc(C)c1C[C@H](N)C(=O)N[C@H](CCCNC(=N)N)C(=O)N[C@@H](Cc1ccccc1)C(=O)N[C@@H](CNS(=O)(=O)c1cccc2c(N(C)C)cccc12)C(N)=O [[Dmt^1,DnsDap^4]DALDA, Dmt-D-Arg-Phe-dnsDap-NH2] (H-[Dmt][dR]F[Dap](Dansyl)-NH2; N-terminus assumed) | confirmed the uptake | diffuse throughout the cytoplasm but was completely excluded from the nucleus |  |  |  |  |  |  |  |  |  |  |  | 
2 | N=C(N)NCCC[C@@H](NC(=O)[C@@H](N)Cc1ccccc1)C(=O)N[C@@H](Cc1ccccc1)C(=O)N[C@@H](CCCCN)C(N)=O [SS-20, Phe-D-Arg-Phe-Lys-NH2] (H-F[dR]FK-NH2; N-terminus assumed) |  |  | 255 ± 5 | 191 ± 17 | 184 ± 15 | 211 ± 10 | 182 ± 16 | 183 ± 12 |  |  |  |  |  | 
3 | Dmt-D-Arg-Phe-atnDap-NH2 [SS-19] |  | completely excluded from the nucleus |  |  |  |  |  |  | 15 min | demonstrated by the overlap | < 20% | retained to a large extent | only partially reversed | immediate quenching
